The text below walks through data of US11186572B2, “Bacterial glutaminyl cyclases and inhibitors thereof for use in the treatment of periodontitis” (Fraunhofer-Gesellschaft zur Forderung der Angewandten …, priority 2016, dated 2021).

Assay [1] has as its system P. gingivalis ATCC 33277. Briefly: MIC/MBC, cultivation in 2-fold dilution series. The class given is cell-based. Particulars: Porphyromonas gingivalis, ATCC33277, P.g. ATCC 33277; for MIC: lowest concentration without visible growth (turbidity); for MBC: no growth of subcultivation or reduction by 99.9%. From the text: (§1) Bacteria expressing PgQC, TfQC and PiQC, namely P. gingivalis ATCC 33277, P. gingivalis M5-1-2, T. forsythia ATCC 42077, and P. intermedia ATCC 25611 were cultivated in the presence of compounds MWT-S-00275, MWT-S-00431, MWT-S-00441 and doxycycline in 2-fold dilution series. […]

Assay [2] concerns P. gingivalis M5-1-2. Briefly: MIC/MBC, cultivation in 2-fold dilution series. The class given is cell-based. To be noted: Porphyromonas gingivalis, M512, P.g. M5-1-2; for MIC: lowest concentration without visible growth (turbidity); for MBC: no growth of subcultivation or reduction by 99.9%.
Excerpt: as §1

In assay [3] the test system is P. intermedia ATCC 25611. The assay can be described thus: MIC/MBC, cultivation in 2-fold dilution series. Particulars: Prevotella intermedia, ATCC25611, P.i. ATCC 25611; for MIC: lowest concentration without visible growth (turbidity); for MBC: no growth of subcultivation or reduction by 99.9%. Format: cell-based.
Excerpt: as §1

Assay [4] has as its system T. forsythia ATCC 42077. The assay can be described thus: MIC/MBC, cultivation in 2-fold dilution series. The class given is cell-based. Particulars: Tannerella forsythia, ATCC42077, T.f. ATCC 42077; for MIC: lowest concentration without visible growth (turbidity); for MBC: no growth of subcultivation or reduction by 99.9%.
Excerpt: as §1

The target in assay [5] is T1, PgQC (Porphyromonas gingivalis, UniProt Q7MT37).
T1 construct: Ki; RA (average residual QC activity of PgQC); other: c = 1 μM; other: c = 1.5 μM; other: c = 10 μM; other: c = 100 μM; other: c = 12 μM; RA; fused on or other part: N-terminal His tag from pET28a(+), cleaved off by thrombin before the enzymatic characterisation
The assay can be described thus: biochemical. Details: species or system P. gingivalis. As for the experimental part:
The assay consists of varying concentration of the fluorogenic substrate and 0.5 U pyroglutaminyl aminopeptidase in 50 mM Tris-HCl, 50 mM NaCl at pH 8.0. After 10 minute incubation time at 30° C. reaction was initiated by addition of bacQC to a final volume of 125 μl reaction mixture. […] All determinations were carried out in 96 well microtiter plates (Fisher Scientific) at 30° C. using the FluoStar Optima (BMG Labtech).
For inhibitor testing, the sample composition was the same as described above, except for the addition of the putative inhibitory compound. […] (∘) represents reaction without inhibitor. Determinations were carried out in 50 mM Tris-HCl, 50 mM NaCl pH 8.0 and 1% (v/v) DMSO at 30° C.
RA refers to the average residual QC activity of PgQC measured in the presence of a concentration c of the respective compound. Ki refers to the average Ki values measured as described above, and Std(Ki) refers to the standard deviation of Ki.

Assay [6] has as its system bacterial QC (PgQC, PiQC, TfQC). Briefly: Inhibition of bacterial QC by metal chelators (fluorometric activity assay). Format: biochemical, P. gingivalis, P. intermedia, T. forsythia. To be noted: 250 μM H-Gln-AMC, increasing chelator concentrations, approx. 5 nM bacQC, 30° C.; all three bacterial QC (FIG. 7). As for the experimental part:
The fluorometrically activity assay was carried out as described above, except the presence of 1% (v/v) DMSO in the case of 1,10-phenanthroline or dipicolinic acid. Finally the residual bacQC activity was determined at steady state whereas bacQC without Chelators and +/−1% DMSO served as positive control.
The reaction was initiated by adding approximately 5 nM bacQC. Black bars indicate residual PgQC activity, striped bars represent residual PiQC activity, and white bars display residual TfQC activity. All determinations were carried out at 30° C. as described above.

[7] abbreviates: inhibition of PgQC, H-Gln-AMC, 50 mM Tris-HCl, 50 mM NaCl pH 8.0, 30° C., read-out: Ki (average).
The mark [8] stands for this setting: read-out: RA (average residual QC activity of PgQC).

In brackets after ≈: the same amount, converted by molar mass. Entries after “also recorded” stand apart in the source; their conditions may differ. Where two headings read alike, the source gives them in different places.

Regarding `C[C@H]1c2cccc(O)c2C(=O)C2=C(O)[C@]3(O)C(=O)C(C(N)=O)=C(O)[C@@H](N(C)C)[C@@H]3[C@@H](O)[C@@H]21` [Doxy, Doxycycline, reference compound], the MIC in assay [1], in assay [2], in assay [3] and in assay [4] was ≤ 3130 µg/mL in each case. In addition, the MBC (commonly the smallest concentration meeting the test's criterion for killing) amounted to 50000 µg/mL (≈ 113 mM) in assay [1], 12500 µg/mL (≈ 28.1 mM) in assay [3] and 6250 µg/mL (≈ 14.1 mM) in assay [4].

Regarding `O=C(c1cc(Cl)cc(Cl)c1)N1CCc2[nH]cnc2C1` [MWT-S-00431, (3,5-Dichlorophenyl)(1,4,6,7-tetrahydro-5H-imidazo[4,5-c]pyridin-5-yl)methanone], the inhibitory constant (Ki) (commonly the equilibrium dissociation constant of an inhibitor or competing ligand from its target) in assay [5] (Ki, Table 3 fit, competitive inhibition, 1% (v/v) DMSO, pH 8.0, 30° C.) worked out at 104 nM; in assay [5] (Ki, exemplary determination (FIG. 4), 1% (v/v) DMSO, pH 8.0, 30° C.), 104 ± 3.31 nM; in assay [5] (setting [7]), 100 nM. Further, in assay [5] (setting [8]), the remaining activity at 10 µM amounted to 3%. Besides, the minimal inhibitory concentration (MIC) (usually the least concentration at which growth counts as inhibited) worked out at 1000 µg/mL (≈ 3.38 mM) in assay [1], 1000 µg/mL (≈ 3.38 mM) in assay [2], 125 µg/mL (≈ 0.422 mM) in assay [3] and 1000 µg/mL (≈ 3.38 mM) in assay [4]. Besides, the minimal bactericidal concentration (MBC) in assay [1] came to 2000 µg/mL (≈ 6.75 mM); in assay [2], 2000 µg/mL (≈ 6.75 mM); in assay [3], 500 µg/mL (≈ 1.69 mM); in assay [4], 2000 µg/mL (≈ 6.75 mM).

Consider `O=C(O)c1cccc(C(=O)O)n1` [dipicolinic acid], for which the “inhibitory effect on bacQC activity (residual activity)” value in assay [6] was “strong inhibitory activity”.

Turning to `CC1(C)c2nc[nH]c2CCN1Cc1cc(F)c(F)c(F)c1` [MWT-S-00275, 4,4-Dimethyl-5-[(3,4,5-trifluorophenyl)methyl]-6,7-dihydro-3H-imidazo[4,5-c]pyridine], the inhibition constant Ki in assay [5] (Ki (average), inhibition of PgQC, H-Gln-AMC, 50 mM Tris-HCl, 50 mM NaCl pH 8.0, 30° C.) worked out at 143 nM. Also, the remaining activity at 1 µM in assay [5] (setting [8]) is 22%. The MIC in assay [1] was determined as 500 µg/mL (≈ 1.69 mM); in assay [2], 500 µg/mL (≈ 1.69 mM); in assay [3] it was 500 µg/mL (≈ 1.69 mM); in assay [4], 250 µg/mL (≈ 0.847 mM). Further, the minimal bactericidal concentration (MBC) was determined as 1000 µg/mL (≈ 3.39 mM) in assay [1], 1000 µg/mL (≈ 3.39 mM) in assay [2], 500 µg/mL (≈ 1.69 mM) in assay [3] and 250 µg/mL (≈ 0.847 mM) in assay [4].

In the case of `c1cnc2c(c1)ccc1cccnc12` [phenanthroline, 1,10-phenanthroline], the “inhibitory effect on bacQC activity (residual activity)” value in assay [6] was “strong inhibitory activity; also recorded: inhibited QC activity already at low mM range”.

Turning to `c1ccc(CN2CCc3[nH]cnc3C23COC3)cc1` [MWT-S-00260, 5-Benzylspiro[6,7-dihydro-3H-imidazo[4,5-c]pyridine-4,3′-oxetane]], the inhibition constant (Ki) in assay [5] (setting [7]) is 1760 nM. Further, the remaining activity at 10 µM in assay [5] (setting [8]) is 22%.

Take `O=C(/C=C/c1ccccc1)N1CCc2[nH]cnc2C1` [MWT-S-00146, (E)-3-Phenyl-1-(3,4,6,7-tetrahydroimidazo[4,5-c]pyridin-5-yl)prop-2-en-1-one]: the inhibition constant Ki in assay [5] (setting [7]) is 1580 nM. Moreover, the remaining activity at 15 µM in assay [5] (setting [8]) came out at 18%.

`COc1cc(Cl)cc(C(=O)N2CCc3[nH]cnc3C2)c1` [MWT-S-00441, (3-Chloro-5-methoxyphenyl)(1,4,6,7-tetrahydro-5H-imidazo[4,5-c]pyridin-5-yl)methanone]: the Ki in assay [5] (setting [7]) was found to be 87 nM. The remaining activity at 1 µM in assay [5] (setting [8]) was determined as 17%. For the same compound, the MIC in assay [1] came to 1000 µg/mL (≈ 3.43 mM); in assay [2], 1000 µg/mL (≈ 3.43 mM); in assay [3], 63 µg/mL (≈ 0.216 mM); in assay [4] it was 2000 µg/mL (≈ 6.86 mM). The MBC in assay [1] is 2000 µg/mL (≈ 6.86 mM); in assay [2], > 2000 µg/mL; in assay [3], 63 µg/mL (≈ 0.216 mM); in assay [4], 2000 µg/mL (≈ 6.86 mM).

Turning to `COc1ccc(C(=O)N2CCc3[nH]cnc3C2)cc1OC` [MWT-S-00426, (3,4-Dimethoxyphenyl)(1,4,6,7-tetrahydro-5H-imidazo[4,5-c]pyridin-5-yl)methanone], in assay [5] (setting [7]), the Ki came to 1460 nM. For the same compound, in assay [5] (setting [8]), the remaining activity at 10 µM stood at 26%.

`O=C(c1ccc2c(c1)OCCO2)N1CCc2[nH]cnc2C1` [MWT-S-00434, (2,3-Dihydrobenzo[b][1,4]dioxin-6-yl)(1,4,6,7-tetrahydro-5H-imidazo-[4,5-c]pyridin-5-yl)methanone]: in assay [5] (setting [7]), the Ki turned out to be 1340 nM. In assay [5] (setting [8]), the remaining activity at 100 µM was determined as 3%.

On to `COc1cc(C(=O)N2CCc3[nH]cnc3C2)ccc1F` [MWT-S-00436, (4-Fluoro-3-methoxyphenyl)(1,4,6,7-tetrahydro-5H-imidazo[4,5-c]pyridin-5-yl)methanone], for which, in assay [5] (setting [7]), the Ki came to 1240 nM. The remaining activity at 100 µM in assay [5] (setting [8]) came to 3%.

As to `O=C(Cc1ccccc1)N1CCc2[nH]cnc2C1` [MWT-S-00148, 2-Phenyl-1-(3,4,6,7-tetrahydroimidazo[4,5-c]pyridin-5-yl)ethanone], the inhibition constant Ki in assay [5] (setting [7]) is 1680 nM. In assay [5] (setting [8]), the remaining activity at 8 µM worked out at 29%.

For `O=C(O)CN(CCN(CC(=O)O)CC(=O)O)CC(=O)O` [EDTA], the “inhibitory effect on bacQC activity (residual activity)” value in assay [6] was “does not influence bacQC activity”.
